Tests used:
Test in all cases: Bliss interaction score (quartile over a dose matrix) (fitness difference); higher = more antagonism (negative = synergy)
B. subtilis 168 = system: B. subtilis 168
Outline: (§1)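 Fitness was OD595 at entry into stationary phase divided by the plate's robust no-drug mean and capped at 1; single-drug fitness was inferred from combination data. The Bliss score is observed minus expected (product) fitness, summarised by quartiles over technical, biological and donor/recipient replicates.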

S. aureus DSM 20231 = system: S. aureus DSM 20231
Outline: as §1

S. aureus Newman = system: S. aureus Newman
Outline: as §1

S. pneumoniae D39V = system: S. pneumoniae D39V
Outline: as §1
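Further: first quartile when negative (synergy) and third quartile when positive (antagonism).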

Row | Compound | Bliss interaction score (B. subtilis 168) | Bliss interaction score (S. aureus DSM 20231) | Bliss interaction score (S. aureus Newman) | Bliss interaction score (S. pneumoniae D39V)
1 | CC(=O)OC[C@H]1O[C@@H]([S-])[C@H](OC(C)=O)[C@@H](OC(C)=O)[C@@H]1OC(C)=O.CCP(CC)CC.[Au+] [Auranofin] + CO[C@@]12[C@H](COC(N)=O)C3=C(C(=O)C(C)=C(N)C3=O)N1C[C@@H]1N[C@@H]12 [MitomycinC] | 0.0315 | -0.0435 | 0.0961 | -0.126
2 | CC(=O)OC[C@H]1O[C@@H]([S-])[C@H](OC(C)=O)[C@@H](OC(C)=O)[C@@H]1OC(C)=O.CCP(CC)CC.[Au+] [Auranofin] + CO[C@H]1/C=C/O[C@@]2(C)Oc3c(C)c(O)c4c(O)c(c(/C=N/N5CCN(C)CC5)c(O)c4c3C2=O)NC(=O)/C(C)=C\C=C\[C@H](C)[C@H](O)[C@@H](C)[C@@H](O)[C@@H](C)[C@H](OC(C)=O)[C@@H]1C [Rifampicin] | 0.081 | 0.0331 | 0.0123 | 0.0685
3 | CC(=O)OC[C@H]1O[C@@H]([S-])[C@H](OC(C)=O)[C@@H](OC(C)=O)[C@@H]1OC(C)=O.CCP(CC)CC.[Au+] [Auranofin] + COc1c(N2C[C@@H]3CCCN[C@@H]3C2)c(F)cc2c(=O)c(C(=O)O)cn(C3CC3)c12 [Moxifloxacin] | 0.031 | 0.0832 | 0.105 | -0.051
4 | CC(=O)OC[C@H]1O[C@@H]([S-])[C@H](OC(C)=O)[C@@H](OC(C)=O)[C@@H]1OC(C)=O.CCP(CC)CC.[Au+] [Auranofin] + COc1cc(Cc2cnc(N)nc2N)cc(OC)c1OC [Trimethoprim] | -0.0454 | 0.0284 | -0.0844 | -0.0729
5 | CC(=O)OC[C@H]1O[C@@H]([S-])[C@H](OC(C)=O)[C@@H](OC(C)=O)[C@@H]1OC(C)=O.CCP(CC)CC.[Au+] [Auranofin] + COc1ccc(C[C@H](N)C(=O)N[C@H]2[C@@H](O)[C@H](n3cnc4c(N(C)C)ncnc43)O[C@@H]2CO)cc1 [Puromycin] | -0.0523 | -0.0538 | -0.0752 | -0.103
6 | CC(=O)OC[C@H]1O[C@@H]([S-])[C@H](OC(C)=O)[C@@H](OC(C)=O)[C@@H]1OC(C)=O.CCP(CC)CC.[Au+] [Auranofin] + COc1cccc2c1C(=O)c1c(O)c3c(c(O)c1C2=O)C[C@@](O)(C(=O)CO)C[C@@H]3O[C@H]1C[C@H](N)[C@H](O)[C@H](C)O1 [Doxorubicin] | 0.0674 | -0.0288 | 0.112 | -0.0943
7 | CC(=O)OC[C@H]1O[C@@H]([S-])[C@H](OC(C)=O)[C@@H](OC(C)=O)[C@@H]1OC(C)=O.CCP(CC)CC.[Au+] [Auranofin] + C[C@@H]1O[C@@H]1P(=O)(O)O [Fosfomycin] | 0.0301 | 0.0509 | 0.0901 | -0.0421
8 | CC(=O)OC[C@H]1O[C@@H]([S-])[C@H](OC(C)=O)[C@@H](OC(C)=O)[C@@H]1OC(C)=O.CCP(CC)CC.[Au+] [Auranofin] + C[C@@H](O)[C@H]1C(=O)N2C(C(=O)O)=C(SCCNC=N)C[C@H]12 [Imipenem] | -0.0439 | -0.0179 | 0.162 | -0.0587
9 | CC(=O)OC[C@H]1O[C@@H]([S-])[C@H](OC(C)=O)[C@@H](OC(C)=O)[C@@H]1OC(C)=O.CCP(CC)CC.[Au+] [Auranofin] + C[C@H]1COc2c(N3CCN(C)CC3)c(F)cc3c(=O)c(C(=O)O)cn1c23 [Levofloxacin] | 0.044 | 0.0688 | 0.0684 | -0.0939
10 | CC(=O)OC[C@H]1O[C@@H]([S-])[C@H](OC(C)=O)[C@@H](OC(C)=O)[C@@H]1OC(C)=O.CCP(CC)CC.[Au+] [Auranofin] + C[C@H]1c2cccc(O)c2C(=O)C2=C(O)[C@]3(O)C(=O)C(C(N)=O)=C(O)[C@@H](N(C)C)[C@@H]3[C@@H](O)[C@@H]21 [Doxycycline] | 0.0704 | -0.0178 | 0.0622 | 0.052
11 | CC(=O)OC[C@H]1O[C@@H]([S-])[C@H](OC(C)=O)[C@@H](OC(C)=O)[C@@H]1OC(C)=O.CCP(CC)CC.[Au+] [Auranofin] + C[n+]1ccc(-c2cc[n+](C)cc2)cc1 [Paraquat] | -0.0338 | -0.0369 | -0.0941 | 0.0914
12 | CC(=O)OC[C@H]1O[C@@H]([S-])[C@H](OC(C)=O)[C@@H](OC(C)=O)[C@@H]1OC(C)=O.CCP(CC)CC.[Au+] [Auranofin] + Cc1cc(NS(=O)(=O)c2ccc(N)cc2)no1 [Sulfamethoxazol] | -0.0445 | -0.0419 | -0.0374 | 0.088
13 | CC(=O)OC[C@H]1O[C@@H]([S-])[C@H](OC(C)=O)[C@@H](OC(C)=O)[C@@H]1OC(C)=O.CCP(CC)CC.[Au+] [Auranofin] + Cc1ncc([N+](=O)[O-])n1CCO [Metronidazole] | -0.0357 | -0.046 | -0.137 | 0.133
14 | CC(=O)OC[C@H]1O[C@@H]([S-])[C@H](OC(C)=O)[C@@H](OC(C)=O)[C@@H]1OC(C)=O.CCP(CC)CC.[Au+] [Auranofin] + Cc1onc(-c2ccccc2)c1C(=O)N[C@@H]1C(=O)N2[C@@H]1SC(C)(C)[C@@H]2C(=O)O [Oxacillin] | -0.0319 | 0.0406 | -0.0535 | 0.125
15 | CC(=O)OC[C@H]1O[C@@H]([S-])[C@H](OC(C)=O)[C@@H](OC(C)=O)[C@@H]1OC(C)=O.CCP(CC)CC.[Au+] [Auranofin] + Clc1ccc(COC(Cn2ccnc2)c2ccc(Cl)cc2Cl)c(Cl)c1 [Miconazole] | 0.0318 | -0.0279 | 0.0208 | 0.086
